Our source for the inhibition and Activity values is ChEMBL document CHEMBL1138104, “Isolation, structure elucidation, antioxidative and immunomodulatory properties of two novel dihydrocoumarins from Aloe vera” (Bioorg Med Chem Lett, 2006).

Assay [1] concerns Radical scavenging activity. As to the kind of experiment: Inhibition of superoxide radical scavenging activity. It is filed as functional. The conditions noted are these: dose or concentration not given here.
Assay [2] has as its system Peritoneal macrophage cell. As to the kind of experiment: Enhancement of respiratory burst in rat peritoneal macrophage at 200 uM. It is filed as functional, cell-based.
In assay [3] the test system is Radical scavenging activity. Put plainly: Inhibition of hydroxyl radical scavenging activity. The conditions noted are these: dose or concentration not given here. It counts as functional.
Assay [4] relates to Peritoneal macrophage cell. As to the kind of experiment: Phagocytic function of rat peritoneal macrophage at 50-200 ug/ml. It is filed as functional, cell-based.

Each structure is given as a SMILES string. Active and inactive are the calls of the source. No cut-off for these calls is given here.

One may read the inhibition as the change of the read-out against control, counted positive when it falls. High values mean strong suppression, low ones little suppression. Take `CCOC(=O)C[C@H](c1ccc(O)cc1)c1c(O)cc(O)c(-c2cc(OC)cc(=O)o2)c1C`: the inhibition in assay [1] was 30.3%; in assay [3], 42.3%. Further, the result in assay [2] was inactive.
For `COc1cc(-c2c(O)cc3c(c2C)[C@@H](c2ccc(O)cc2)CC(=O)O3)oc(=O)c1`, the inhibition was determined as 42.3% in assay [1] and 43.7% in assay [3]. The outcome in assay [2] was Active. Further, the Activity entry in assay [4] is “Dose-dependent effect”.
